# Reference: US20230041065A1, “METHODS FOR GENERATING HEMATOPOIETIC STEM CELLS” (The Brigham and Women`s Hospital, Inc., priority 2019, published 2023)
# Where no end group is shown, it is not given here.
# Tests used:
# E11.5 AGM cells = test: Hematopoietic CFU and FACS assays on E11.5 AGM cells; type: cell-based, mouse; settings: for GEMM formation: 50 μM
# Procedure: Pulsating blood vessels like conditions were stimulated in vitro using Flexcell FX-4000 machine. To analyze roles of pharmacological targets in regulating the endothelial-to-HSC transition, mouse embryo-derived AGM or whole mouse embryo were exposed ex vivo with biomechanical stretching, chemicals, or drugs. Next, hematopoietic colony formation assays were performed by incubating mouse AGM-derived cells in StemCell M3434 media for seven days. Serial transplantation of AGM-derived HSCs in lethally irradiated SJL mice were performed. The stem cell frequency upon biomechanical stretching was analyzed using a limiting dilution assay. To characterize properties of AGM-HSC-derived blood cells in primary transplants, percentage chimerism and reconstitution was measured using FACS, globin transcripts were analyzed using quantitative reverse transcriptase-PCR, myeloperoxidase amount was measured using PicoKine ELISA kit, TCR-β rearrangement was analyzed using PCR for TCR-β locus, pre-immune IG detection was analyzed using Thermo-Fisher Mouse Ig Isotyping kit, and delayed-type hypersensitivity was analyzed by injecting sheep RBC (Rockland Immunochemicals) in the footpad of pre-sensitized mice. E11.5 AGM were harvested from C57BL6/J Cd45.2 mouse embryos, and a single cell suspension of a three-embryo equivalent of cells was seeded on each well of a BioFlex six-well culture plate ([…]). We cultured cells overnight with the application of cyclic strain (Flexcell® FX4000TM Tension System) and/or treatment with chemical modulators (2-100 μM Yoda1, 1 μM Nanaomycin, 100 μM Gdcl3, 1 uM GsMT×4, 5-20 μM 4αPDD, 10 uM GSK205). Next, harvested cells were used to perform transplant, fluorescence-activated cell sorting (FACS) analysis, and colony-forming unit (CFU) assays. For CFU assays, cells from AGM explant or ex vivo were plated in MethoCult GF M3434 media (StemCell Technologies). Seven days after seeding, we analyzed their capacity to make granulocyte, erythroid, macrophage, megakaryocyte (GEMM), granulocyte macrophage (GM), granulocyte (G), macrophage (M), and erythroid (E) colonies.
# zebrafish embryos = test: HSPC marker expression in zebrafish embryos (whole mount in situ hybridization); type: in vivo
# Procedure: (§1) Zebrafish embryos were treated with the following chemical modulators in E3 fish media: 100 uM L-NAME (Fisher Scientific), 50 uM Digitoxigenin (Sigma), 25-50 uM Yoda1 (Cayman Chemical), 1 uM Nanaomycin (Nana; Fisher Scientific), 100 uM Gadolinium chloride (GdCl3; Sigma), 5-10 uM 4α-phorbol 12, 13-didecanaote (4Apdd; Sigma), or GSK205 (10 uM).
# Whole mount in situ hybridizations was performed as previously described.
# [1] = test system: cd41:eGFP+ HSCs emerging from flk1:mCherry+ endothelial cells; test: Time-lapse confocal imaging of cd41:eGFP+ HSCs emerging from flk1:mCherry+ endothelial cells in transgenic embryos; type: in vivo, zebrafish; settings: embryos concurrently treated with or without Yoda1
# Procedure: Mice were purchased Cd45.2 (C57BL6/J) and Cd45.1 (SJL) from The Jackson Laboratory and zebrafish morpholinos from GeneTools. Microangiography was performed by injecting fluorescent-labeled dextran dye in the atrium of zebrafish heart and its passage was recorded using live imaging. Immunostaining of zebrafish heart and mouse AGM were analyzed using an inverted fluorescent microscope. Cardiac tamponade, heart rate, and pulse frequency were analyzed in zebrafish embryos using bright field imaging or time-lapse confocal microscopy. The movement of red blood cells in blood vessels was analyzed as well as the endothelial-to-HSC transition in zebrafish transgenic embryos using time-lapse confocal imaging.
# as §1
# cd41:eGFP were crossed with flk1:mCherry zebrafish and flk1:mCherry with lcr:eGFP zebrafish and injected morpholino in their transgenic embryos. […] The relative movement of lcr:eGFP^+ red blood cells was analyzed in the context of flk1:mCherry^+ endothelium. We performed image analysis using Imaris (Bitplane) software.
compound,measurement,setting,value
"[Cl][Gd]([Cl])[Cl] [GdCl3, Gadolinium chloride]",formation of multipotent hematopoietic progenitors potentiated by 10% cyclic strain,E11.5 AGM cells; 10% cyclic strain plus stretch-activated receptor inhibitor,attenuated
same,HSPC expression,zebrafish embryos; zebrafish embryos,attenuated HSPC expression in zebrafish embryos to the level of sih-MO embryos
Cc1oc(-c2ccccc2)cc1C(=O)O [Jedi1],GEMM formation,E11.5 AGM cells,enhances GEMM formation
Cc1oc(-c2cccs2)cc1C(=O)O [Jedi2],GEMM formation,E11.5 AGM cells,enhances GEMM formation
COC(=O)[C@@H](N)CCCNC(=N)N[N+](=O)[O-] [L-NAME],HSPC formation,zebrafish embryos; cdh5-MO embryos,does not impact HSPC formation in cdh5-MO embryos
same,HSPC formation,zebrafish embryos; control embryos,attenuates HSPC formation in control embryos
CC1OC(CC(=O)O)CC2=C1C(=O)c1c(O)cccc1C2=O (centres unmarked) [Nanaomycin],hematopoietic colony formation stimulated by cyclic strain or Yoda1,E11.5 AGM cells; cyclic strain or Yoda1 in the presence of Nanaomycin,attenuates the endothelial-to-HSC transition stimulated by circumferential stretch or Piezo1 activation
same,phenotype of hematopoietic cells after treatment,E11.5 AGM cells; stretch- or Piezo1 activation-treated AGM cells,reverts hematopoietic cells into phenotypic endothelial cells
same,HSPC marker expression,zebrafish embryos; control and cdh5-MO embryos,attenuated HSPC marker expression in control and cdh5-MO embryos
same,Piezo1 activation (Yoda1)-mediated increase in HSC formation,[1],attenuated the Piezo1 activation-mediated increase in HSC formation
"GsMtX4: pharmacological inhibition of Piezo1 (GCLEFWWKCNPNDDKCCRPKLKCSKLFKLCNFSF; ends and bridges not checked; cysteine pairing not given here; UniProt Q7YT39 47-80, looked up)",hematopoietic colony formation induced by cyclic strain,E11.5 AGM cells; cyclic strain plus Piezo1 inhibitor,attenuates the inductive impact of cyclic strain on the endothelial-to-HSC transition
